Assay results as given in patent US20240217973A1, “IMIDAZOPYRIDINE COMPOUNDS AND USE THEREOF” (MEDSHINE DISCOVERY INC., priority 2021, published 2024).

What was measured:
plasma proteins [1] = test: Plasma protein binding experiment (PPB), R; format: in vitro ADME, rat; details: 2 μM, 4 hours dialysis
Description: (§1) Experimental operation: 995 μL of blank plasma of each genus was taken, 5 μL of working solution of test compound (400 μM) or working solution of warfarin (400 μM) was added, so that the final concentrations of the test compound and warfarin in the plasma sample was 2 μM. The sample was mixed thoroughly. The final concentration of the organic phase DMSO was 0.5%; 50 μL of plasma samples of the test compound and warfarin were pipetted into the sample receiving plate (three parallels), and the corresponding volume of the corresponding blank plasma or buffer was immediately added so that the final volume of each sample well was 100 μL, with a volume ratio of 1:1 for plasma: dialysis buffer, and then 500 μL of stop solution was added to these samples, and these samples would be used as a T0 sample for the recovery and stability determination. […] All samples were analyzed by LC/MS/MS after protein precipitation, and the protein binding rate and recovery rate were calculated by the formula: % Unbound=100*F/T, % Bound=100−% Unbound, % Recovery 100*(F+T) T0 (where F was the peak area ratio of the compound in the dialysate after 4 hours of dialysis; T was the peak area ratio of the compound in the plasma after 4 hours of dialysis, and T0 was the peak area ratio of the compound in the plasma sample at zero time).

plasma proteins [2] = test: Plasma protein binding experiment (PPB), H; format: in vitro ADME, human; details: 2 μM, 4 hours dialysis
Description: as §1

[3] = test system: experimental autoimmune encephalomyelitis (EAE) model; test: In vivo efficacy of EAE in C57BL/6 mice; details: C57BL/6 female mice, 5 mg/kg
Description: Experimental methods: Experimental autoimmune encephalomyelitis (EAE) model was established in 10-week-old C57BL/6 female mice, and the animals were randomly divided into two groups according to their weight, of which, group G1 was a pure modeling group with 5 animals, and group G2 was a subject 002 group with 7 animals. On day 0, 100 μL of myelin oligodendrocyte glycoprotein (MOG) emulsion was injected subcutaneously into the hind flank of each animal in the G1-G2 group at two points, totaling 200 μL. After 2 hours and 48 hours, respectively, 200 μL of pertussis toxin (PTX) was injected subcutaneously into the animals of groups G1-G2. The in vivo experiment was finished on day 22, and no treatment was given to group G1 from day 0; G2 group was administered 5 mg/kg of subject 002 once a day for […]. The animals in each group were weighed and scored (including tail weakness, claudication, hind limb paralysis, hind limb paralysis and other symptoms) every 2 days. [table] [table]

[4] = Hepatocyte metabolic stability experiment (HMS), D; format: in vitro ADME; details: dog, D hepatocytes, read-out: HMS CLint(liver)
Description: Experimental operations: 198 μL of hepatocyte suspension (0.51×10^6 cells/mL) was added to the preheated incubation plate, and 198 μL of culture medium without hepatocytes was added to T0-MC and T120-MC incubation plates for the culture medium control group, and all incubation plates were pre-incubated for 10 minutes in a 37° C. incubator. Then 2 μL of the working solution of the test and control compounds were added and mixed well, and the incubation plate was immediately put into the plate shaker in the incubator, the rotation speed was adjusted to about 650 rpm, and the timer and the reaction were started. 2 duplicate samples for each compound were prepared at each time point. Incubation conditions: 37° C., saturated humidity, and containing 5% CO2. In the test system, the final concentration of the test compound was 1 μM, the final concentration of the control compound was 3 μM, the final concentration of hepatocytes was 0.5×10^6 cells/mL, and the final concentration of the total organic solvent was 0.96%, of which the final concentration of DMSO was 0.1%. […] All samples were mixed and analyzed by LC-MS/MS method. […]

plasma proteins [5] = test: Plasma protein binding experiment (PPB), D; format: in vitro ADME, dog; details: 2 μM, 4 hours dialysis
Description: as §1

plasma proteins [6] = test: Plasma protein binding experiment (PPB), C; format: in vitro ADME, cynomolgus monkey; details: 2 μM, 4 hours dialysis
Description: as §1

[7] = Pharmacokinetic evaluation of compounds in rats; format: in vivo; details: rat, plasma, SD rats
Description: Experimental purpose: To test the in vivo pharmacokinetic data of compounds in SD rats.
(§2) The compound was mixed with the solvent 5% DMSO/5% Solutol/90% H2O, vortexed and sonicated to prepare a 0.5 mg/mL clear solution. The rats were administered the candidate compound solution intravenously. Whole blood was collected for a certain period of time, and plasma was prepared. The drug concentration was analyzed by LC-MS/MS method, and pharmacokinetic parameters were calculated.
as §2, with “2” for “0.5”, “administered” for “administered the”, “solutions orally.” for “solution intravenously.”

[8] = IV, 1.0 mg/kg (002), 0.85 mg/kg (003B)
[9] = PO, 9.2 mg/kg (002), 8.4 mg/kg (003B)

Nc1nccc2c1n(-c1ccc(Oc3ccccc3)cc1)c(=O)n2[C@@H]1CCCN(C(=O)/C=C/CF)C1 [Compound 002]
Unbound PPB (plasma proteins [1]): 1.3% | Unbound PPB (plasma proteins [2]): 8.2% | efficacy in EAE model / severity of the disease (in words) ([3]; QD, compared with the modeling group): effective in reducing the severity of the disease | Scores of animals on day 20 after administration ([3]; EAE model, QD × 29, moulding group 1.8): 0.4 | CLint scaled at 1 μM [4]: 187 mL/min/kg | Unbound PPB (plasma proteins [5]): 4.3% | Unbound PPB (plasma proteins [6]): 4.1% | AUC(0-inf) [7, 8]: 1.32 µM·h | C0 [7, 8]: 3520 nM | Vd [7, 8]: 0.7 L/kg | clearance [7, 8]: 26 mL/min/kg | half-life [7, 8]: 24 min | AUC(0-inf) [7, 9]: 2.58 µM·h | Cmax [7, 9]: 1800 nM | Tmax [7, 9]: 22.8 min | bioavailability [7, 9]: 18.1% | half-life [7, 9]: 107 min
